# Patent publication US11712434B2, “Compound having anti-cancer effect, and preparation method therefor and use thereof” (3D MEDICINES (BEIJING) CO., LTD., priority 2016, dated 2023)
# Columns and labels:
# Experiment in all cases: Cell proliferation assay (Alamar Blue)
# Type in all cases: cell-based
# JHH2 = JHH2 liver cancer cell line; 6 days culture
# Procedure, shortened: (§1)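 Seed 500~1×10^4 cells/well; incubate 4 h, 37 °C, 5% CO2. Add compound, 9 conc., 3.16× dilutions, top 100 or 30 μM, n=2. Culture 6 d. AlamarBlue 1-4 h, read Ex560/Em590. IC50 via 4-parameter regression.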
# SK-HEP-1 = SK-HEP-1 liver cancer cell line; 6 days culture
# Procedure, shortened: as §1
# KASUMI-1 = KASUMI-1 (leukemia cells); 6 days culture
# Procedure, shortened: as §1
# NCI-H661 = NCI-H661 tumor cell line; 6 days culture
# Procedure, shortened: as §1
# 22RV1 = 22RV1 tumor cell line; 6 days culture
# Procedure, shortened: as §1
# HT1080 = HT1080 tumor cell line; 6 days culture
# Procedure, shortened: as §1
# SNU398 = SNU398 liver cancer cell line; 6 days culture
# Procedure, shortened: as §1
# Alexander cells = Alexander cells liver cancer cell line; 6 days culture
# Procedure, shortened: as §1
# Hep3B2.1-7 = Hep3B2.1-7 liver cancer cell line; 6 days culture
# Procedure, shortened: as §1
# JHH4 = JHH4 liver cancer cell line; 6 days culture
# Procedure, shortened: as §1
# JHH6 = JHH6 liver cancer cell line; 6 days culture
# Procedure, shortened: as §1
# HUH1 = HUH1 liver cancer cell line; 6 days culture
# Procedure, shortened: as §1
# SNU423 = SNU423 liver cancer cell line; 6 days culture
# Procedure, shortened: as §1
# NCI-H1703 = NCI-H1703 (lung cancer cells); 6 days culture
# Procedure, shortened: as §1
# KM12 = KM12 tumor cell line; 6 days culture
# Procedure, shortened: as §1
# JHH7 = JHH7 liver cancer cell line; 6 days culture
# Procedure, shortened: as §1
# SNU739 = SNU739 liver cancer cell line; 6 days culture
# Procedure, shortened: as §1
# T.T = T.T tumor cell line; 6 days culture
# Procedure, shortened: as §1
# HuTu80 = HuTu80 tumor cell line; 6 days culture
# Procedure, shortened: as §1
# JHH1 = JHH1 liver cancer cell line; 6 days culture
# Procedure, shortened: as §1
# SNU761 = SNU761 liver cancer cell line; 6 days culture
# Procedure, shortened: as §1
# SNU182 = SNU182 liver cancer cell line; 6 days culture
# Procedure, shortened: as §1
# SNU886 = SNU886 liver cancer cell line; 6 days culture
# Procedure, shortened: as §1
# LC-2-ad = LC-2-ad tumor cell line; 6 days culture
# Procedure, shortened: as §1
# NCI-H1648 = NCI-H1648 tumor cell line; 6 days culture
# Procedure, shortened: as §1
# HLF = HLF liver cancer cell line; 6 days culture
# Procedure, shortened: as §1
# AN3CA = AN3CA tumor cell line; 6 days culture
# Procedure, shortened: as §1
# TE-6 = TE-6 tumor cell line; 6 days culture
# Procedure, shortened: as §1
smiles,measurement,setting,value
Cc1ccc(F)c(NC(=O)Nc2ccc(-c3cccc4[nH]nc(NC(=O)CCCCCCCCCCCNC(=O)C[C@H](N)C(=O)O)c34)cc2)c1 [Compound 12],IC50,JHH2,> 100 µM
same,IC50,SK-HEP-1,> 100 µM
same,IC50,KASUMI-1,0.49 µM
same,IC50,NCI-H661,> 100 µM
same,IC50,22RV1,95.6 µM
same,IC50,HT1080,> 100 µM
same,IC50,SNU398,> 100 µM
same,IC50,Alexander cells,77.1 µM
same,IC50,Hep3B2.1-7,79.6 µM
same,IC50,JHH4,> 100 µM
same,IC50,JHH6,85.8 µM
same,IC50,HUH1,> 100 µM
same,IC50,SNU423,> 100 µM
same,IC50,NCI-H1703,0.25 µM
same,IC50,KM12,82.5 µM
same,IC50,JHH7,67.2 µM
same,IC50,SNU739,> 100 µM
same,IC50,T.T,> 100 µM
same,IC50,HuTu80,44.4 µM
same,IC50,JHH1,> 100 µM
same,IC50,SNU761,> 100 µM
same,IC50,SNU182,> 100 µM
same,IC50,SNU886,41.9 µM
same,IC50,LC-2-ad,22.9 µM
same,IC50,NCI-H1648,> 100 µM
same,IC50,HLF,> 100 µM
same,IC50,AN3CA,3.84 µM
same,IC50,TE-6,> 100 µM
